Biological target: T1, human IL-17AA (Homo sapiens, UniProt Q16552)
T1 construct: host or cells: HEK (human embryonic kidney) cells
T1 sequence (Q16552 24-155): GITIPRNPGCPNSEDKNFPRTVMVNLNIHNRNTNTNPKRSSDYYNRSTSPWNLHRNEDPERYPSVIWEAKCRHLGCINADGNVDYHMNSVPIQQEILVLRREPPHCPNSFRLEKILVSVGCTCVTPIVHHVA
Experiment: IL-8 release assay in human epithelial keratinocytes adult (HEKa)
Format: cell-based
Details: HEKa cells, 3 ng/mL HEK-human IL-17AA + 10 ng/mL human TNFalpha; read-out: Rel EC50 IL-8 release assay
How it was run: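 IL-8 release, quantified by HTRF and normalized to controls, reports IL-17 signaling in HEKa cells treated with compound plus final 3 ng/mL IL-17AA (HEK-derived) and 10 ng/mL TNF-alpha for 68-72 h; TNF-alpha-only wells set 100% inhibition. Four-parameter logistic fits (r^2>0.9) give relative IC50 and Emax; PrestoBlue flags cytotoxicity.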

| EC50 [nM] | SMILES |
| --- | --- |
| 100 to 1000 | CC(C)n1nccc1C(=O)N[C@H](C(=O)Nc1ccc(-c2c(C3CC3)ncn2C)cc1)C(C1CC1)C1CC1 [Example 402, N-[(1S)-2,2-dicyclopropyl-1-[[4-(5-cyclopropyl-3-methyl-imidazol-4-yl)phenyl]carbamoyl]ethyl]-2-isopropyl-pyrazole-3-carboxamide] |
| 100 to 1000 | Cc1ncn(C)c1-c1ccc(NC(=O)[C@@H](NC(=O)c2ccnn2C(C)C)C(C2CC2)C2CC2)cc1 [Example 403, N-[(1S)-1-(dicyclopropylmethyl)-2-[4-(3,5-dimethylimidazol-4-yl)anilino]-2-oxo-ethyl]-2-isopropyl-pyrazole-3-carboxamide] |
| 100 to 1000 | Cc1ncccc1-c1ccc(NC(=O)[C@@H](NC(=O)c2ccnn2C(C)C)C(C2CC2)C2CC2)cc1 [Example 404, N-[(1S)-1-(dicyclopropylmethyl)-2-[4-(2-methyl-3-pyridyl)anilino]-2-oxo-ethyl]-2-isopropyl-pyrazole-3-carboxamide] |
| < 100 | Cc1cnccc1-c1ccc(NC(=O)[C@@H](NC(=O)c2ccnn2C(C)C)C(C2CC2)C2CC2)cc1 [Example 405, N-[(1S)-1-(dicyclopropylmethyl)-2-[4-(3-methyl-4-pyridyl)anilino]-2-oxo-ethyl]-2-isopropyl-pyrazole-3-carboxamide] |
| 100 to 1000 | CC(C)n1nccc1C(=O)N[C@H](C(=O)Nc1ccc(-c2c(CO)ncn2C)cc1)C(C1CC1)C1CC1 [Example 406, N-[(1S)-1-(dicyclopropylmethyl)-2-[4-[5-(hydroxymethyl)-3-methyl-imidazol-4-yl]anilino]-2-oxo-ethyl]-2-isopropyl-pyrazole-3-carboxamide] |
| 100 to 1000 | CC(C)n1nccc1C(=O)N[C@H](C(=O)Nc1ccc(-c2cccnc2CO)cc1)C(C1CC1)C1CC1 [Example 407, N-[(1S)-1-(dicyclopropylmethyl)-2-[4-[2-(hydroxymethyl)-3-pyridyl]anilino]-2-oxo-ethyl]-2-isopropyl-pyrazole-3-carboxamide] |
| 100 to 1000 | Cc1noc(CO)c1-c1ccc(NC(=O)[C@@H](NC(=O)c2ccnn2C(C)C)C(C2CC2)C2CC2)cc1 [Example 409, N-[(1S)-1-(dicyclopropylmethyl)-2-[4-[5-(hydroxymethyl)-3-methyl-isoxazol-4-yl]anilino]-2-oxo-ethyl]-2-isopropyl-pyrazole-3-carboxamide] |
| < 100 | Cc1n[nH]c(C)c1-c1ccc(NC(=O)[C@@H](NC(=O)c2ccnn2C(C)C)C(C2CC2)C2CC2)cc1O [Example 410, N-[(1S)-1-(Dicyclopropylmethyl)-2-[4-(3,5-dimethyl-1H-pyrazol-4-yl)-3-hydroxy-anilino]-2-oxo-ethyl]-2-isopropyl-pyrazole-3-carboxamide] |
| 100 to 1000 | Cc1n[nH]c(C)c1-c1ccc(NC(=O)[C@@H](NC(=O)c2ccnn2C)C(c2ccccc2)c2ccccc2)cc1O [Example 411, N-[(1S)-1-benzhydryl-2-[4-(3,5-dimethyl-1H-pyrazol-4-yl)-3-hydroxy-anilino]-2-oxo-ethyl]-2-methyl-pyrazole-3-carboxamide] |
| < 100 | Cc1n[nH]c(C)c1-c1ccc(NC(=O)[C@@H](NC(=O)c2ccnn2C)C2CCCCC2)cc1O [Example 412, N-[(1S)-1-cyclohexyl-2-[4-(3,5-dimethyl-1H-pyrazol-4-yl)-3-hydroxy-anilino]-2-oxo-ethyl]-2-methyl-pyrazole-3-carboxamide] |
| < 100 | CCn1nccc1C(=O)N[C@H](C(=O)Nc1ccc(-c2c(C)n[nH]c2C)c(O)c1)C(C1CC1)C1CC1 [Example 413, N-[(1S)-1-(dicyclopropylmethyl)-2-[4-(3,5-dimethyl-1H-pyrazol-4-yl)-3-hydroxy-anilino]-2-oxo-ethyl]-2-ethyl-pyrazole-3-carboxamide] |
| < 100 | Cc1n[nH]c(C)c1-c1ccc(NC(=O)[C@@H](NC(=O)c2ccnn2C)C(C2CC2)C2CC2)cc1O [Example 414, N-[(1S)-1-(dicyclopropylmethyl)-2-[4-(3,5-dimethyl-1H-pyrazol-4-yl)-3-hydroxy-anilino]-2-oxo-ethyl]-2-methyl-pyrazole-3-carboxamide] |
| 100 to 1000 | Cc1n[nH]c(C)c1-c1ccc(NC(=O)[C@@H](NC(=O)C2(F)CC2)C(C2CC2)C2CC2)cc1O [Example 415, N-[(1S)-1-(dicyclopropylmethyl)-2-[4-(3,5-dimethyl-1H-pyrazol-4-yl)-3-hydroxy-anilino]-2-oxo-ethyl]-1-fluoro-cyclopropanecarboxamide] |
| < 100 | CCn1nccc1C(=O)N[C@H](C(=O)Nc1ccc(-c2c(C)n[nH]c2C)c(O)c1)[C@H]1CC[C@H](C)CC1 [Example 416, N-[(1S)-2-[4-(3,5-dimethyl-1H-pyrazol-4-yl)-3-hydroxy-anilino]-1-(trans-4-methylcyclohexyl)-2-oxo-ethyl]-2-ethyl-pyrazole-3-carboxamide] |
| < 100 | Cc1n[nH]c(C)c1-c1ccc(NC(=O)[C@@H](NC(=O)c2ccnn2C(C)C)[C@H]2CC[C@H](C)CC2)cc1O [Example 417, N-[(1S)-2-[4-(3,5-dimethyl-1H-pyrazol-4-yl)-3-hydroxy-anilino]-1-(trans-4-methylcyclohexyl)-2-oxo-ethyl]-2-isopropyl-pyrazole-3-carboxamide] |
| < 100 | CCc1n[nH]c(CC)c1-c1ccc(NC(=O)[C@@H](NC(=O)c2ccnn2C(C)C)C(C2CC2)C2CC2)cc1O [Example 418, N-[(1S)-1-(dicyclopropylmethyl)-2-[4-(3,5-diethyl-1H-pyrazol-4-yl)-3-hydroxy-anilino]-2-oxo-ethyl]-2-isopropyl-pyrazole-3-carboxamide] |
| 100 to 1000 | Cn1cncc1-c1ccc(NC(=O)[C@@H](NC(=O)c2ccnn2C)C2CCCCC2)cc1O [Example 419, N-[(1S)-1-Cyclohexyl-2-[3-hydroxy-4-(3-methylimidazol-4-yl)anilino]-2-oxo-ethyl]-2-methyl-pyrazole-3-carboxamide] |
| 100 to 1000 | Cn1cncc1-c1ccc(NC(=O)[C@@H](NC(=O)c2ccnn2C)C(c2ccccc2)c2ccccc2)cc1O [Example 420, N-[(1S)-1-benzhydryl-2-[3-hydroxy-4-(3-methylimidazol-4-yl)anilino]-2-oxo-ethyl]-2-methyl-pyrazole-3-carboxamide] |
| 100 to 1000 | Cc1n[nH]cc1-c1ccc(NC(=O)[C@@H](NC(=O)c2ccnn2C)C(c2ccccc2)c2ccccc2)cc1O [Example 421, N-[(1S)-1-Benzhydryl-2-[3-hydroxy-4-(3-methyl-1H-pyrazol-4-yl)anilino]-2-oxo-ethyl]-2-methyl-pyrazole-3-carboxamide] |
| > 1000 | Cn1cncc1-c1ccc(NC(=O)[C@@H](NC(=O)OC2CC2)C2CCCCC2)cc1O [Example 422, Cyclopropyl N-[(1S)-1-cyclohexyl-2-[3-hydroxy-4-(3-methylimidazol-4-yl)anilino]-2-oxo-ethyl]carbamate] |
| 100 to 1000 | Cc1ncn(C)c1-c1ccc(NC(=O)[C@@H](NC(=O)OC2CC2)C(c2ccccc2)c2ccccc2)cc1 [Example 423, Cyclopropyl N-[(1S)-1-benzhydryl-2-[4-(3,5-dimethylimidazol-4-yl)anilino]-2-oxo-ethyl]carbamate] |
| 100 to 1000 | Cc1n[nH]c(C)c1-c1ccc(NC(=O)[C@@H](NC(=O)OC2CC2)C2CCCCC2)cc1O [Example 424, cyclopropyl N-[(1S)-1-cyclohexyl-2-[4-(3,5-dimethyl-1H-pyrazol-4-yl)-3-hydroxy-anilino]-2-oxo-ethyl]carbamate] |
| 100 to 1000 | Cc1n[nH]c(C)c1-c1ccc(NC(=O)[C@@H](NC(=O)OC2CC2)C2CCCCCC2)cc1O [Example 425, cyclopropyl N-[(1S)-1-cycloheptyl-2-[4-(3,5-dimethyl-1H-pyrazol-4-yl)-3-hydroxy-anilino]-2-oxo-ethyl]carbamate] |
| 100 to 1000 | Cc1n[nH]c(C)c1-c1ccc(NC(=O)[C@@H](NC(=O)OC2CC2)C(c2ccccc2)c2ccccc2)cc1 [Example 426, cyclopropyl N-[(1S)-1-benzhydryl-2-[4-(3,5-dimethyl-1H-pyrazol-4-yl)anilino]-2-oxo-ethyl]carbamate] |
| < 100 | Cc1n[nH]c(C)c1-c1ccc(NC(=O)[C@@H](NC(=O)OC2CC2)C2CCCCCC2)cc1 [Example 427, cyclopropyl N-[(1S)-1-cycloheptyl-2-[4-(3,5-dimethyl-1H-pyrazol-4-yl)anilino]-2-oxo-ethyl]carbamate] |
| < 100 | Cc1n[nH]c(C)c1-c1ccc(NC(=O)[C@@H](NC(=O)OC2CCC2)C(C2CC2)C2CC2)cc1 [Example 428, Cyclobutyl N-[(1S)-1-(dicyclopropylmethyl)-2-[4-(3,5-dimethyl-1H-pyrazol-4-yl)anilino]-2-oxo-ethyl]carbamate] |
| 100 to 1000 | Cc1n[nH]c(C)c1-c1ccc(NC(=O)[C@@H](NC(=O)OCc2ccccc2)C2CCCCC2)cc1 [Example 429, benzyl N-[(1S)-1-cyclohexyl-2-[4-(3,5-dimethyl-1H-pyrazol-4-yl)anilino]-2-oxo-ethyl]carbamate] |
| 100 to 1000 | Cc1n[nH]c(C)c1-c1ccc(NC(=O)[C@@H](NC(=O)OCc2cccnc2)C2CCCCC2)cc1 [Example 430, 3-pyridylmethyl N-[(1S)-1-cyclohexyl-2-[4-(3,5-dimethyl-1H-pyrazol-4-yl)anilino]-2-oxo-ethyl]carbamate] |
| 100 to 1000 | Cc1n[nH]c(C)c1-c1ccc(NC(=O)[C@@H](NC(=O)OCc2ccccn2)C2CCCCC2)cc1 [Example 431, 2-pyridylmethyl N-[(1S)-1-cyclohexyl-2-[4-(3,5-dimethyl-1H-pyrazol-4-yl)anilino]-2-oxo-ethyl]carbamate] |
